Laboratory results: the supplement of paper PMC11451515

Test system: SEM cells
Experiment: cell viability relative to DMSO control; higher = less cytotoxic
Settings: 48 h
How it was run: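 Before seeding, each leukemia line was adapted for at least four passages in each medium. NOMO1 or SEM cells (500 cells/well) and P12-Ichikawa cells (1000 cells/well) went into 1536-well plates at 5 μl, then received library compounds in DMSO by pin dosing across 11 threefold concentrations, 47 μM to 0.79 nM. Readout was CellTiter-Glo One luminescence after 48 h at 37°C, and viability is given as a per-plate percentage of DMSO wells, with cell-free wells as background.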

[1] = HPLM + 10% dialyzed FBS, 0.000781 µM
[2] = HPLM + 10% dialyzed FBS, 0.00234 µM
[3] = HPLM + 10% dialyzed FBS, 0.00702 µM
[4] = HPLM + 10% dialyzed FBS, 0.0211 µM
[5] = HPLM + 10% dialyzed FBS, 0.0632 µM
[6] = HPLM + 10% dialyzed FBS, 0.19 µM
[7] = HPLM + 10% dialyzed FBS, 0.569 µM
[8] = HPLM + 10% dialyzed FBS, 1.71 µM
[9] = HPLM + 10% dialyzed FBS, 5.12 µM
[10] = HPLM + 10% dialyzed FBS, 15.4 µM
[11] = HPLM + 10% dialyzed FBS, 46.1 µM
[12] = RPMI 5 mM glucose + 10% FBS, 0.000781 µM
[13] = RPMI 5 mM glucose + 10% FBS, 0.00234 µM
[14] = RPMI 5 mM glucose + 10% FBS, 0.00702 µM
[15] = RPMI 5 mM glucose + 10% FBS, 0.0211 µM
[16] = RPMI 5 mM glucose + 10% FBS, 0.0632 µM
[17] = RPMI 5 mM glucose + 10% FBS, 0.19 µM
[18] = RPMI 5 mM glucose + 10% FBS, 0.569 µM
[19] = RPMI 5 mM glucose + 10% FBS, 1.71 µM
[20] = RPMI 5 mM glucose + 10% FBS, 5.12 µM
[21] = RPMI 5 mM glucose + 10% FBS, 15.4 µM
[22] = RPMI 5 mM glucose + 10% FBS, 46.1 µM
[23] = RPMI 5 mM glucose + 10% dialyzed FBS, 0.000781 µM
[24] = RPMI 5 mM glucose + 10% dialyzed FBS, 0.00234 µM
[25] = RPMI 5 mM glucose + 10% dialyzed FBS, 0.00702 µM
[26] = RPMI 5 mM glucose + 10% dialyzed FBS, 0.0211 µM
[27] = RPMI 5 mM glucose + 10% dialyzed FBS, 0.0632 µM
[28] = RPMI 5 mM glucose + 10% dialyzed FBS, 0.19 µM
[29] = RPMI 5 mM glucose + 10% dialyzed FBS, 0.569 µM
[30] = RPMI 5 mM glucose + 10% dialyzed FBS, 1.71 µM
[31] = RPMI 5 mM glucose + 10% dialyzed FBS, 5.12 µM
[32] = RPMI 5 mM glucose + 10% dialyzed FBS, 15.4 µM
[33] = RPMI 5 mM glucose + 10% dialyzed FBS, 46.1 µM

SMILES	cell viability [1] [%]	cell viability [2] [%]	cell viability [3] [%]	cell viability [4] [%]	cell viability [5] [%]	cell viability [6] [%]	cell viability [7] [%]	cell viability [8] [%]	cell viability [9] [%]	cell viability [10] [%]	cell viability [11] [%]	cell viability [12] [%]	cell viability [13] [%]	cell viability [14] [%]	cell viability [15] [%]	cell viability [16] [%]	cell viability [17] [%]	cell viability [18] [%]	cell viability [19] [%]	cell viability [20] [%]	cell viability [21] [%]	cell viability [22] [%]	cell viability [23] [%]	cell viability [24] [%]	cell viability [25] [%]	cell viability [26] [%]	cell viability [27] [%]	cell viability [28] [%]	cell viability [29] [%]	cell viability [30] [%]	cell viability [31] [%]	cell viability [32] [%]	cell viability [33] [%]
O=C(C1CC1)N1CC[C@@H](Cn2c(-c3ccc(-c4ccc5occc5c4)cc3)nc3cnccc32)C1	94.6	91.1	106	108	98.8	107	115	108	104	121	102	73.9	89.5	99.9	97.9	108	101	99.9	110	101	103	85.9	113	102	101	111	112	119	129	121	108	114	108
COc1nccc(-c2c(-c3ccc(F)cc3)ncn2C2CCC(O)CC2)n1 (centres undefined)	124	123	132	128	122	105	125	113	106	116	36.1	102	116	97.3	103	96.6	56.7	53.4	63.9	63.8	47.9	12.2	103	126	116	114	123	127	111	112	94.9	87.9	26.8
O=C(O)CCNc1cc(N2CCc3ccccc3CC2)nc(-c2ccccn2)n1	123	120	130	127	139	144	129	133	121	129	139	105	124	123	118	121	103	103	95.9	99.2	115	76.9	112	116	127	110	116	120	130	112	101	120	99.6
CCc1ccc(C(=O)Nc2cc(CN3CCN(C)CC3)cc(C(F)(F)F)c2)cc1C#Cc1cnc2ccnn2c1	121	113	122	126	116	128	77.4	122	109	73.7	74.4	110	118	114	109	111	106	98.3	116	95.9	94.1	71.9											
Oc1cc2c(cc1O)C1c3ccc(O)c(O)c3OCC1(O)C2 (centres undefined)	83.5	32.7	89.1	88.3	100	102	93	100	99.7	100	90.6	83.8	36.7	99.2	102	91.3	105	101	88.8	108	101	87.7	92.7	34.3	102	91.7	86.4	107	92.9	106	104	111	89.5
CC[C@H](NC(C)C)[C@H](O)c1ccc(O)c2[nH]c(=O)ccc12	75.6	90.5	101	92.8	89.3	100	94.6	98.1	98.5	98.8	68.4	89.2	112	96.9	107	109	98.1	108	100	104	106	79.3	100	87.5	98	109	119	109	125	105	113	98.9	85.5
O=C(O)CSCC(=O)NC1CCSC1=O (centres undefined)	77.6	98.4	91.5	80.6	99.3	91.9	112	102	100	89.5	92.6	73.3	87.6	96.4	92.9	107	113	111	104	101	97	98.8	83.4	98.4	100	100	115	105	107	108	118	104	94.9
Cn1cc(-c2cnn3c(N)c(Br)c([C@@H]4CCCNC4)nc23)cn1	75.1	93.2	94.8	86.4	93.6	93.6	71.3	29.1	19.4	16.7	8.44	87.4	99.9	101	94.4	91.8	93.6	96.6	63	22.4	16.3	7.88	76.8	90.9	84.6	88.9	83.6	94.2	69.5	31.3	13.2	12.8	7.35
CCc1c(O)cc(O)c(C(=O)c2ccc(OCCN3CCOCC3)c(OC)c2)c1CC(=O)N(CCOC)CCOC	115	124	118	120	116	116	111	103	47.3	25.5	17	122	116	153	121	143	117	81.9	91.3	40.8	20.8	19	115	103	111	106	108	105	86.5	68.1	32.9	24.1	15
CCOC(CN1C(=O)[C@](CC(=O)Nc2ccc(C)cc2)(NC(=O)Nc2ccc(C)cc2)c2ccccc21)OCC	117	101	105	120	105	116	114	102	86.6	99.6	73.5	99	98.8	113	108	99.4	108	119	87.7	75.9	77.3	79.9	109	115	100	113	122	113	110	98.4	102	105	66.5
O=C(Nc1ccc([N+](=O)[O-])cc1Cl)c1cc(Cl)ccc1O	84.5	98.7	93.1	98.2	99.7	97.6	104	43.3	24.2	64.1	33.9	75	89.7	96.8	101	101	105	117	22.1	19.7	3.97	32.3	96.9	85.7	88.8	103	96.7	99.2	123	19.6	17.1	66.3	47
CN(CCOc1ccc(NS(C)(=O)=O)cc1)CCc1ccc(NS(C)(=O)=O)cc1	102	108	105	107	104	120	111	117	128	93.9	131	89.9	111	101	110	122	101	119	107	109	79.7	94.6	85.2	95.2	102	100	94	100	96.9	104	96.1	56.1	91.6
CCC(=O)OC1CCC2C3CCC/4=C/C(=O)CC[C@@]4(C)C3CC[C@]12C (some centres undefined)	104	107	110	118	132	115	128	141	123	121	137	102	107	116	119	133	138	124	128	120	125	117	102	111	102	114	139	114	115	137	120	127	127
CN[C@H]1[C@H](O[C@@H]2[C@H](O[C@@H]3[C@@H](O)[C@@H](O)[C@@H](NC(=N)N)[C@@H](O)[C@H]3NC(=N)N)O[C@H](C)[C@@]2(O)C=O)O[C@@H](CO)[C@@H](O)[C@H]1O	93.2	89.9	79.7	80.2	79.9	82.2	83.7	57	83.3	82.1	78.6	95.1	116	119	114	114	110	104	44.8	103	85.6	99.3	109	103	118	114	117	114	109	80.4	103	111	101
CCOc1cc(/C=C2/C(=O)N(c3ccccc3)N=C2C)cc(Cl)c1OCC(=O)OC	69.2	85.9	84	82.7	81	90	85.9	89.5	75.7	83.6	48.4	86.2	95.7	85.2	91.1	82	107	95.6	95.8	90.9	71.9	58.6	80	74.3	95	90	64.4	90.6	81.5	86.3	85.8	65.9	59
